Results published in patent publication US20090246134A1, “COMPOSITIONS AND METHODS FOR MODULATING GATED ION CHANNELS” (PainCeptor Pharma Corporation, priority 2007, published 2009).
“And” between values parts separate entries of the source, which are not always exact repeats. Identical values can stand only once.

Columns and labels:
[1] = Metabolite identification (LC-MS), sample 1, source of sample not given; type: in vitro ADME
Text: (§1) The objective of this study is to analyze in vitro samples of Compound A and Compound B from rat and human microsomes using liquid chromatography quadrupole ion trap mass spectrometry and identify the nature of the metabolite(s) for each species.
(§2) The HPLC system consisted of a Thermo Surveror autosampler and a Thermo Surveyor MS pump (San Jose, Calif., USA). The LC-MS/MS system used was a Thermo LCQ Advantage (San Jose, Calif., USA). Data was acquired on a Dell Optiplex desktop computer (Round Rock, Tex., USA) equipped with operation system Windows XP professional. Data acquisition and analysis were performed using XCalibur 1.4 (San Jose, Calif., USA).
(§3) After the incubation period of the liver microsomes, the reaction was stopped with the addition of acetonitrile and frozen for transport. Before analysis, the samples were thawed at room temperature. They were vortexed vigorously and centrifuged at approximately 12000 g for 10 minutes. The supernatant was transferred into an injection vial for analysis.
(§4) A gradient mobile phase was used with a Thermo Phenyl 100×2 mm column with particle size of 5 μm. The initial mobile phase condition consisted of methanol and 0.1% formic acid solution at a ratio of 20:80, respectively. From 0 to 2 minutes, the ratio was maintained at 20:80. From 2 to 10 minutes, a linear gradient was applied and a ratio of 90:10 was maintained from 10 to 12 minutes. […] The flow rate was fixed at 0.25 mL/min.
(§5) The mass spectrometer was interfaced with the HPLC system using a pneumatic assisted electrospray ion source. The sheath gas was set to 15 units and the ESI electrode was set to 4000 V (positive mode). The capillary temperature was set at 300° C., and the capillary voltage was set to 13 V. The mass spectrometer was operating in full scan MS mode using one segment analysis (200-800).

[2] = Liver microsomes stability and metabolite identification (LC-MS), rat; type: in vitro ADME
Text: as §1, §2, §3, §4, §5

[3] = molecular target: T1, ASIC1a (Homo sapiens, UniProt P78348); assay: Calcium-imaging (calcium mobilization, FLIPR) assay in ASIC1a expressing HEK293 cells; type: cell-based; set-up: host or cells: HEK293; details: n=3-7, compounds not radiolabelled
T1 sequence (P78348 1-528): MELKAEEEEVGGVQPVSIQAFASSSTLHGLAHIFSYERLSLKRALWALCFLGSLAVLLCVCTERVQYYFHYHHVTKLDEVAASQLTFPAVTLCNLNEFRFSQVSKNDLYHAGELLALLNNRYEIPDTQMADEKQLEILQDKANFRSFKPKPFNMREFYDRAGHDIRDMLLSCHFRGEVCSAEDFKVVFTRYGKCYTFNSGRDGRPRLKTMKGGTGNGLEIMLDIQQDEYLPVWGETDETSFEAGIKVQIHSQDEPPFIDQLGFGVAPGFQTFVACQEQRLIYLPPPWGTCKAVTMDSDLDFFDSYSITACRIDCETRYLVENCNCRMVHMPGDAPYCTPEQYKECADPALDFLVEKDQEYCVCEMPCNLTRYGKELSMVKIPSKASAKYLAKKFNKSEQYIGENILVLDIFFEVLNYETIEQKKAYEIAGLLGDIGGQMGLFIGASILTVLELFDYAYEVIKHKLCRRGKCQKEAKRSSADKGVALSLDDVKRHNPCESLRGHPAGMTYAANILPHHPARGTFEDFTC
Protocol: ASIC1a expressing HEK293 cells are grown in culture medium (DMEM with 10% FBS), in polystyrene culture flasks ([…]) at 37° C. in a humidified atmosphere of 5% CO2. Confluency of cells should be 80-90% on day of plating. Cells are rinsed with 10 ml of PBS and re-suspended by addition of culture medium and trituration with a 25 ml pipette.
The cells are seeded at a density of approximately 1×10^6 cells/ml (100 μl/well) in black-walled, clear bottom, 96-well plates pre-treated with 10 mg/l poly-D-lysin (75 μl/well for ≧30 min). Plated cells were allowed to proliferate for 24 h before loading with dye.
Fluo-4/AM (1 mg, Molecular Probes) is dissolved in 912 μl DMSO. The Fluo-4/AM stock solution (1 mM) is diluted with culture medium to a final concentration of 2 μM (loading solution).
The culture medium is aspirated from the wells, and 50 μl of the Fluo-4/AM loading solution is added to each well. The cells are incubated at 37° C. for 30 min.
After the loading period, the loading solution is aspirated and the cells are washed twice with 100 μl modified Assay Buffer (145 mM NaCl, 5 mM KCl, 5 mM CaCl2, 1 mM MgCl2, 10 mM HEPES, pH 7.4) to remove extracellular dye. Following the second wash, 100 μl modified Assay Buffer is added to each well and the fluorescence is measured in FLIPR™ or FlexStation™ (Molecular Devices, USA), or any other suitable equipment known to the skilled in the art.
Temperature: Room temperature (20-22° C.)
First addition: 50 μl test solution at a rate of 30 μl/sec and a starting height of […]
Second addition: 50 μl MES solution (20 mM, 5 mM final concentration) at a rate of 35 μl/sec and a starting height of 150 μl.
Reading intervals: pre-incubation—10 sec×7 and 3 sec×3 antagonist phase—3 sec×17 and 10 sec×12
Addition plates (compound test plate and MES plate) are placed on the right and left positions in the FLIPR tray, respectively. Cell plates are placed in the middle position and the ASIC1a program is effectuated. FLIPR will then take the appropriate measurements in accordance with the interval settings above. Fluorescence obtained after stimulation is corrected for the mean basal fluorescence (in modified Assay Buffer).
The MES-induced peak calcium response, in the presence of test substance, is expressed relatively to the MES response alone. Test substances that block the MES-induced calcium response are re-tested in triplicates. Confirmed hits are picked for further characterization by performing full dose-response curves to determine potency of each hit compound as represented by the IC50 values (i.e., the concentration of the test substance which inhibits 50% of the MES-induced calcium response).
It is noted that the compounds below are not radiolabelled.

[4] = rat microsomes 60 min (samples 5-7)

COc1ccc(F)cc1-c1cc2c(c3c1CCN(C)C3)NC(=O)C2=NO [Compound A, 5-(5-fluoro-2-methoxyphenyl)-6,7,8,9-tetrahydro-3-(hydroxyimino)-8-methyl-1H-pyrrolo[3,2-h]isoquinoline-2(3H)-one]
Compound A metabolite identification: m/z 342 [1]: no | Compound A metabolite identification: m/z 356 (parent) [1]: Yes | Compound A metabolite identification: m/z 372 [1]: no | Compound A metabolite identification: m/z 412 [1]: no | Total % metabolites ([2]; % peak area relative to parent at T0, 60 min incubation, rat microsomes): 32.76% | Compound A metabolite identification: m/z 342 [2, 4]: Yes | Compound A metabolite identification: m/z 356 (parent) [2, 4]: Yes | Compound A metabolite identification: m/z 372 [2, 4]: Yes | Compound A metabolite identification: m/z 412 [2, 4]: trace | Calc. Conc. ([2]; rat microsomes, time 0 min): 3.61 µM and 3.80 µM | Calc. Conc. ([2]; rat microsomes, time 60 min): 2.49 µM and 2.67 µM and 2.40 µM | IC50 [3]: 700 nM
